Results from patent US6903113B2, “Urea substituted imidazopyridines” (3M Innovative Properties Company, priority 2000, dated 2005).

Columns and labels:
interferon (α) = assay: Cytokine Induction in Human Cells: interferon (α) by ELISA; assay type: cell-based; settings: human PBMC, 18 to 24 hours incubation, compounds generally tested at 30-0.014 μM; read-out: Lowest Effective Concentration Interferon
From the text: (§1) An in vitro human blood cell system is used to assess cytokine induction. Activity is based on the measurement of interferon and tumor necrosis factor (α) (IFN and TNF, respectively) secreted into culture media as described by Testerman et. al. In “Cytokine Induction by the Immunomodulators Imiquimod and S-27609”, Journal of Leukocyte Biology, 58, 365-372 (September, 1995).
(§2) Whole blood from healthy human donors is collected by venipuncture into EDTA vacutainer tubes. Peripheral blood mononuclear cells (PBMC) are separated from whole blood by density gradient centrifugation using Histopaque®-1077. Blood is diluted 1:1 with Dulbecco's Phosphate Buffered Saline (DPBS) or Hank's Balanced Salts Solution (HBSS). The PBMC layer is collected and washed twice with DPBS or HBSS and resuspended at 4×10^6 cells/mL in RPMI complete. The PBMC suspension is added to 48 well flat bottom sterile tissue culture plates (Costar, Cambridge, Mass. or Becton Dickinson Labware, Lincoln Park, N.J.) containing an equal volume of RPMI complete media containing test compound.
(§3) The compounds are solubilized in dimethyl sulfoxide (DMSO). The DMSO concentration should not exceed a final concentration of 1% for addition to the culture wells. The compounds are generally tested at concentrations ranging from 30-0.014 μM.
(§4) The solution of test compound is added at 60 μM to the first well containing RPMI complete and serial 3 fold dilutions are made in the wells. The PBMC suspension is then added to the wells in an equal volume, bringing the test compound concentrations to the desired range (30-0.014 μM). The final concentration of PBMC suspension is 2×10^6 cells/mL. The plates are covered with sterile plastic lids, mixed gently and then incubated for 18 to 24 hours at 37° C. in a 5% carbon dioxide atmosphere.
(§5) Following incubation the plates are centrifuged for 10 minutes at 1000 rpm (˜200×g) at 4° C. The cell-free culture supernatant is removed with a sterile polypropylene pipet and transferred to sterile polypropylene tubes. Samples are maintained at −30 to −70° C. until analysis. The samples are analyzed for interferon (α) by ELISA and for tumor necrosis factor (α) by ELISA or IGEN Assay
Interferon (α) concentration is determined by ELISA using a Human Multi-Species kit from PBL Biomedical Laboratories, New Brunswick, N.J. Results are expressed in pg/mL.
(§6) The table below lists the lowest concentration found to induce interferon and the lowest concentration found to induce tumor necrosis factor for each compound.

[1] = test system: tumor necrosis factor (α); assay: Cytokine Induction in Human Cells: tumor necrosis factor (α) by ELISA or IGEN Assay; assay type: cell-based; design: key to Lowest Effective Concentration Tumor Necrosis Factor: A “*” indicates that no induction was seen at any of the tested concentrations; settings: human PBMC, 18 to 24 hours incubation, compounds generally tested at 30-0.014 μM
From the text: as §1, §2, §3, §4, §5
Tumor necrosis factor (α) (TNF) concentration is determined using ELISA kits available from Biosource International, Camarillo, Calif. Alternately, the TNF concentration can be determined by Origen® M-Series Immunoassay and read on an IGEN M-8 analyzer from IGEN International, Gaithersburg, Md. The immunoassay uses a human TNF capture and detection antibody pair from Biosource International, Camarillo, Calif. Results are expressed in pg/mL.
as §6

| Structure (SMILES) | minimal effective concentration (interferon (α)) | Lowest Effective Concentration Tumor Necrosis Factor [1] | melting point | minimal effective concentration ([1]; read-out: Lowest Effective Concentration Tumor Necrosis Factor) |
| --- | --- | --- | --- | --- |
| Cc1nc(N)c2nc(C)n(CCCCNS(C)(=O)=O)c2c1C [Example 7, N-[4-(4-amino-2,6,7-trimethyl-1H-imidazo[4,5-c]pyridin-1-yl)butyl]methanesulfonamide] | 0.37 µM | * | 228 to 230 °C |  |
| CCOCc1nc2c(N)nc(C)c(C)c2n1CCCCNS(C)(=O)=O [Example 8, N-{4-[4-amino-2-(ethoxymethyl)-6,7-dimethyl-1H-imidazo[4,5-c]pyridin-1-yl]butyl}methanesulfonamide] | 0.04 µM |  | 165 to 167 °C | 10 µM |
